The text below walks through data of PMC4279419, “Angiostatic, tumor inflammatory and anti-tumor effects of CXCL4^47–70 and CXCL4L1^47–70 in an EGF-dependent breast cancer model” (Oncotarget, 2014).

pKd: −log10 of the molar value. Like-named read-outs stand apart in the source and are kept apart here. Where no end group is shown, it is not given here.

For one test, the system named is p21 in HMVEC. Nature of the test: Intracellular p21 content in HMVEC (ELISA). Type of test: cell-based, human. The conditions noted are these: 15 h, mean ± s.e.m. The procedure:
Signaling assays were slightly adapted to the signaling molecules of interest in this study. HMVEC were stimulated with EGF (20 ng/ml) as a single stimulus or in combination with the peptides CXCL4^47–70 and CXCL4L1^47–70 (0.3 to 10 μg/ml) in order to evaluate their impact on the cell cycle-arresting p21. After 15 hours, the cells were washed three times with ice-cold PBS to stop the stimulation and lysis buffer [1 mM EDTA, 0.5% (v/v) Triton-X, 10 mM NaF, 150 mM NaCl, 1 mM DTT in PBS; pH 7.2–7.4] supplemented with a protease inhibitor cocktail (Sigma) was added. Cell residue was removed from the collected lysates by centrifugation (4°C, 10 min, 1666g). Lastly, the intracellular p21 content was determined by DuoSet® IC ELISA (cat n° DYC1047, R&D Systems) while, in parallel, total protein content was measured in a bicinchoninic acid (BCA) protein assay (Pierce, Rockford, IL).
A general note: An ELISA detects its analyte on a solid surface through an enzyme-linked reagent.

Test [1] has as its system human acute monocytic leukemia cells (THP-1). The test can be described thus: Transendothelial multiscreen chemotaxis assay. Format: cell-based. The conditions noted are these: HMVEC monolayer, n=3 to 4; for effect on CCL5-induced transendothelial migration: peptide 1000 to 5000 ng/ml + CCL5 20 ng/ml, 3 to 5 hours, 37°C, ATPlite. The procedure:
Monocyte chemotaxis assays were performed on 5 μm hydrophilic polycarbonate multiscreen-MIC plates (Millipore) using the human acute monocytic leukemia cells (THP-1). To promote efficient synergy between CCL5 on one hand and CXCL4, CXCL4^47–70 or CXCL4L1^47–70 on the other hand, the upper compartment of these plates was coated with a HMVEC monolayer. HMVEC were seeded on a 0.1% gelatin layer 24 hours prior to the chemotaxis assay. The following day, dilutions of recombinant human CCL5 (PeproTech, Rocky Hill, CT), natural human CXCL4 (isolated from stimulated platelets as previously described), recombinant human CXCL4L1 (isolated from baculovirus-infected Sf9 cells as previously described), synthetic CXCL4^47–70, synthetic CXCL4L1^47–70 (both produced as described above), or combinations thereof were added to the lower compartment of the plate, in a volume of 150 μl. After removal of the HMVEC medium, 0.35 × 10^6 THP-1 cells were added to the upper wells, resuspended in phenol red-free RPMI + 0.1 g/100 ml BSA (endotoxin-free BSA; Sigma CatN° A8806) after centrifugation of the cells at 200g for 10 min. Plates were incubated at 37°C for 3 to 5 hours before quantifying the amount of cells that migrated towards the chemokine concentrations. For that purpose, we used the ATPlite kit (PerkinElmer, Waltham, MA) allowing quantitative luminescent detection of ATP, which is representative of THP-1 cell counts in the lower wells. This reaction was performed in a view white 96-well plate (PerkinElmer). A chemotactic index (CI) was calculated, defined as the ratio of luminescence after chemokine treatment and luminescence after control treatment.

The nature of test [2]: SPR (BIAcore) binding to immobilized heparin. The settings on record: for Dissociation rate (Koff): BIAcore X100, HBS-EP+ pH 7.4; for Association rate (Kon): BIAcore X100, HBS-EP+ pH 7.4, 2 min injection, 30 μl/min. The procedure:
Next, we exploited surface plasmon resonance (SPR) analysis to assess the capacity of CXCL4^47–70 and CXCL4L1^47–70 to bind heparin immobilized to a BIAcore sensorchip, a model that mimics the binding of proteins to heparan sulphate proteoglycans associated to the cell surface. When increasing concentrations of the two peptides were injected onto the heparin surface, sensorgram overlays (not shown) allowed the calculation of association (Kon) and dissociation (Koff) rates and of Kd (as Koff/Kon ratio, Table 1). Also, equilibrium binding data were used to generate the saturation curves shown in Figure 8A and used to calculate a Kd value independently from kinetic parameters (Table 1).
SPR measurements were performed on a BIAcore X100 instrument (GE-Healthcare, Milwaukee, WI). Research-grade SA sensorchip was used. For the study of the interaction of heparin with CXCL4^47–70 and CXCL4L1^47–70, heparin was immobilized to a BIAcore sensorchip. Briefly, 13600 Da unfractionated heparin was biotinylated at its reducing end and immobilized onto the SA streptavidin-coated sensorchip. These experimental conditions allowed the immobilization of 200 resonance units (RU) equal to 14.7 fmol/mm^2 of heparin. A sensorchip coated with streptavidin alone was used as a reference and for blank subtraction. The peptides were dissolved in 10 mM HEPES buffer pH 7.4 containing 150 mM NaCl, 3 mM EDTA, 0.05% surfactant P20 (HBS-EP+) and injected at different concentrations over the heparin or streptavidin surfaces for 2 min at a flow rate of 30 μl/min and then washed until dissociation was observed. After each run, the sensorchip was regenerated by injection of HBS-EP+ containing 2.0 M NaCl.
A general note: Surface plasmon resonance follows binding to a sensor surface in real time, without labels.

Another test has as its system CXCR3A. Nature of the test: Calcium signaling in CXCR3A-transfectants. Format: cell-based. The settings on record: CHO/CXCR3A, one representative experiment out of three; for calcium signal via CXCR3A: 2 μg/ml, fura 2, spectrofluorometer; for inhibition of CXCL10-induced calcium signaling (desensitization): peptide 2 μg/ml, CXCL10 5 ng/ml added 100 s later, fura 2. An excerpt: We further tried to reveal the mode of action of CXCL4^47–70 and CXCL4L1^47–70. First, we excluded that either peptide still binds/activates one of the CXCR3 isoforms, the receptors for intact CXCL4 and CXCL4L1. […]
inhibit signaling by intact CXCL10. To study interaction of CXCL447–70 and CXCL4L147–70 with CXCR3A, CHO cells stably transfected with CXCR3A were loaded with the fluorescent dye fura 2 (Struyf et al. J. Immunol. 2009, 182:666). Changes in the intracellular Ca2+ concentrations ([Ca2+]i) in response to CXCL447–70 or CXCL4L147–70 treatment were monitored using a spectrofluorometer. The line in the spectra indicates the fluorescence intensity ratio (i.e. the fluorescence intensity measured after excitation at 340 nm divided by the fluorescence intensity measured after excitation at 380 nm). The results shown (one representative experiment out of three) illustrate a desensitization experiment, in which CHO/CXCR3A cells were stimulated first with a peptide (2 µg/ml) and 100 s later with intact CXCL10 […]
peptides induced a rise in [Ca2+]i. When the cells were stimulated with 5 ng/ml intact CXCL10 100 s after peptide treatment, the response […]
interact with CXCR3A. Arrows indicate the time of addition of the stimulus.
(also on this page, place not known: www.impactjournals.com/oncotarget/ Oncotarget, Supplementary Materials 2014 CXCL4 47–70 CXCL4L1 47–70 CXCL4 47–70 CXCL4L1 47–70 CXCL4 47–70) […]

[3] abbreviates: peptide 3 μg/ml + EGF 20 ng/ml, n=9, p=0.039 (CXCL4^47–70), n=5, p=0.033 (CXCL4L1^47–70) versus EGF.
Setting [4] is: BIAcore X100, HBS-EP+ pH 7.4, Scatchard plot analysis of equilibrium binding data, read-out: Kd at equilibrium.
Where [5] appears, read: BIAcore X100, HBS-EP+ pH 7.4, from Koff/Kon ratio, read-out: Kd (Koff/Kon).
Where [6] appears, read: BIAcore X100, kinetic and equilibrium values taken together, read-out: Kd (range over both methods).

For “CXCL4L1^47–70: synthetic human carboxy-terminal peptide restricted to the last 24 amino acids of CXCL4L1, Fmoc chemistry”, in the test with p21 in HMVEC (setting [3]), the “intracellular p21 relative to control (100%), with EGF” value was 115.06 ± 17.41%. Further, the “effect on CCL5-induced transendothelial migration” value in test [1] is recorded as “enhanced transendothelial migration of monocytic cells”. The “Dissociation rate (Koff)” value in test [2] was determined as 0.053 s⁻¹. In addition, the “Association rate (Kon)” value in test [2] stood at 52000 M⁻¹ s⁻¹. The pKd in test [2] (setting [4]) was 5.92; in test [2] (setting [5]), 6.00; in test [2] (setting [6]), 5.92 to 6.00. For the same substance, the “calcium signal via CXCR3A” value with CXCR3A is given as “Nor could we detect any calcium signal”; with CXCR3A (listed as CXCL4L147–70) it was “do not induce calcium signaling via CXCR3A”. The “inhibition of CXCL10-induced calcium signaling (desensitization)” value with CXCR3A was “neither peptide (2 μg/ml) was capable of inhibiting calcium signaling”; with CXCR3A (listed as CXCL4L147–70) it was “equal to the signal obtained after buffer stimulation”.
As to “CXCL4^47–70: synthetic human carboxy-terminal peptide restricted to the last 24 amino acids of CXCL4, Fmoc chemistry (NGRKICLDLQAPLYKKIIKKLLES; not fully specified (N-terminus))”, the “intracellular p21 relative to control (100%), with EGF” value in the test with p21 in HMVEC (peptide 1 μg/ml + EGF 20 ng/ml, n=6, p=0.039 versus EGF) came out at 106.90 ± 15.12%; in the test on p21 in HMVEC (setting [3]), 100.02 ± 8.67%; in the test with p21 in HMVEC (peptide 10 μg/ml + EGF 20 ng/ml, n=5, p=0.005 versus EGF), 125.51 ± 15.05%. Also, in test [1], the “effect on CCL5-induced transendothelial migration” value was “enhanced transendothelial migration of monocytic cells”. Moreover, the “stimulation of monocytic cell chemotaxis compared to CXCL4L1^47–70” value in test [1] (peptide 1000 to 5000 ng/ml with CCL5 20 ng/ml) is listed as “more efficiently stimulated monocytic cell chemotaxis compared to CXCL4L1^47–70”. Moreover, in test [2], the “Dissociation rate (Koff)” value came to 0.011 s⁻¹. Also, the “Association rate (Kon)” value in test [2] was determined as 670000 M⁻¹ s⁻¹. Besides, the values for the pKd in test [2] (setting [4]), in test [2] (setting [5]) and in test [2] (setting [6]) were 7.14, 7.80 and 7.14 to 7.80, respectively. Further, the “calcium signal via CXCR3A” value is “Nor could we detect any calcium signal” with CXCR3A and “do not induce calcium signaling via CXCR3A” in the test with CXCR3A (listed as CXCL447–70). Besides, the “inhibition of CXCL10-induced calcium signaling (desensitization)” value in the test on CXCR3A is given as “neither peptide (2 μg/ml) was capable of inhibiting calcium signaling”; in the test with CXCR3A (listed as CXCL447–70), “equal to the signal obtained after buffer stimulation”.
